Measured values: patent US7968697B2, “Hepatitis C virus non-structural NS3/4A fusion gene” (ChronTech Pharma AB, priority 2005, dated 2011)
“And” between values parts separate entries of the source, which are not always exact repeats. Equal values may be shown once.

Columns and labels:
rNS3 = assay: EIA antibody titre to rNS3 after immunization with rNS3 with or without ribavirin; assay type: in vivo, Balb/c mice; conditions: for Group mean titre (mean ± SD) to rNS3, Week 4 / Group mean titre (mean ± SD) to rNS3, Week 6 / Group mean titre (mean ± SD) to rNS3, Week 8 / Antibody titre to rNS3 at Week 4 / Antibody titre to rNS3 at Week 6 / Antibody titre to rNS3 at Week 8: i.p.; for Endpoint titre of rNS3 IgG at Week 1 / Endpoint titre of rNS3 IgG at Week 2 / Endpoint titre of rNS3 IgG at Week 3 / Antibody titre to rNS3 at Week 4 / Antibody titre to rNS3 at Week 6 / Antibody titre to rNS3 at Week 8: individual mouse
Experimental: In a first set of experiments, groups of three to five Balb/c mice (BK Universal, Uppsala, Sweden) were immunized i.p or s.c. (e.g., at the base of the tail) with 10 μg or 100 μg of recombinant hepatitis C virus non-structural 3 (rNS3) protein. […] Mice were injected with a total volume of 100 μl per injection.
At two and four weeks following i.p. immunization, all mice were bled by retro-orbital sampling. Serum samples were collected and analyzed for the presence of antibodies to rNS3. To determine the antibody titer, an enzyme immunoassay (EIA) was performed. (See e.g., Hultgren et al., J Gen Virol. 79:2381-91 (1998) and Hultgren et al., Clin. Diagn. Lab. Immunol. 4:630-632 (1997)). The antibody levels were recorded as the highest serum dilution giving an optical density at 405 nm more than twice that of non-immunized mice.
At four, six and eight weeks the mice were bled and serum was separated and frozen. After completion of the study, sera were tested for the levels of antibodies to recombinant NS3, as described above. Mean antibody levels to rNS3 were compared between the groups using Student's t-test (parametric analysis) or Mann-Whitney (non-parametric analysis) and the software package StatView 4.5 (Abacus Concepts, Berkely, Calif.). […] The values given represent end point titres to recombinant rNS3.
The levels of antibody to the antigen were then determined by EIA.
A second set of experiments was also performed. […] The mice were bled at week six and rNS3-specific IgG levels were determined by EIA as described previously.

NS3 = assay: NS3-specific IgG subclass EIA after rNS3 with or without ribavirin; assay type: in vivo, mice; conditions: 0.1 or 1.0 mg ribavirin with 10 μg rNS3 i.p. at weeks 0 and 4; bled at week six
Experimental: The mice were bled at week six and NS3-specific IgG subclasses were determined by EIA as described previously.

CD4+ T cell = assay: In vitro recall assay, lymph node CD4+ T cell proliferation ([3H] thymidine); assay type: cell-based, mice; conditions: 100 μg rNS3 mixed with 1 mg ribavirin s.c.; ten days post-immunization; 96 h of culture
Experimental: This assay can be used with any ribavirin derivative or combinations of ribavirin derivatives to determine the extent that a particular vaccine formulation modulates a cellular immune response. […] The mice were sacrificed ten days post-immunization and their lymph nodes were harvested and drained. In vitro recall assays were then performed. (See e.g., Hultgren et al., J Gen Virol. 79:2381-91 (1998) and Hultgren et al., Clin. Diagn. Lab. Immunol. 4:630-632 (1997)). The amount of CD4^+ T cell proliferation was determined at 96 h of culture by the incorporation of [^3H] thymidine.

HBsAg = assay: EIA antibody titer to HBsAg after Engerix vaccine with or without ribavirin; assay type: in vivo, mice; conditions: 1 mg ribavirin mixed with 2 μg Engerix i.p., booster week four, bled week six
Excerpt: (Engerix, SKB). […] A booster containing the same mixture was given on week four and all mice were bled on week six.

[1] = test system: NS3/4A-expressing EL-4 cells; assay: In vivo challenge with NS3/4A-expressing EL-4 lymphoma cells, prophylactic and therapeutic; conditions: immunized only once; C57BL/6 mice
Experimental: To confirm that inhibition of tumor growth using the NS3/4A-expressing EL-4 cell line is fully dependent on an NS3/4A-specific immune response a control experiment was performed. Groups of ten C57BL/6 mice were either left nonimmunized, or immunized twice with the coNS3/4A plasmid. Two weeks after the last immunization the mice were challenged with an s.c. injection of 10^6 native EL-4 or NS3/4A-expressing EL-4 cells (NS3/4A-EL-4). An NS3/4A-specific immune response was required for protection, since only the immunized mice were protected against growth of the NS3/4A-EL-4 cell line (FIG. 13). Thus, this H-2^b-restricted model behaves similarly to the SP2/0H-2^d restricted model.
The tumor challenge model was then used to evaluate how effective the different immunogens were in priming a protective immunity against growth of NS3/4A-EL-4 tumor cells in vivo. […]
In vivo challenge of immunized mice with the NS3/4A-expressing SP2/0 myeloma or EL-4 lymphoma cell line was performed according to the method described by Encke et al., supra. […] The kinetics of the tumor growth was determined by measuring the tumor size through the skin at days six to 20. […]
To test the therapeutic effect of the vaccines groups of mice were inoculated with the tumor cells as described above. […] The tumor growth was monitored from day 6 to day 20.

[2] = 0.1 mg ribavirin mixed with 20 μg rNS3
[3] = 1.0 mg ribavirin mixed with 20 μg rNS3
[4] = 10.0 mg ribavirin mixed with 20 μg rNS3
[5] = 10 mg ribavirin with 10 μg rNS3
[6] = 10 mg ribavirin with 50 μg rNS3

NC(=O)c1ncn([C@@H]2O[C@H](CO)[C@@H](O)[C@H]2O)n1 [ribavirin, 1-β-D-ribofuranosyl-1,2,4-triazole-3-carboxamide]
Mean endpoint titre of rNS3 IgG at Week 1 (rNS3; [2]): 1110 ± 1484
Mean endpoint titre of rNS3 IgG at Week 2 (rNS3; [2]): 5060 ± 6921
antibody titer compared with formulations composed of only rNS3 (rNS3; 1 mg of ribavirin and either 10 μg or 100 μg of rNS3, two weeks post-immunization): significantly greater antibody titer
Mean endpoint titre of rNS3 IgG at Week 1 (rNS3; [3]): 360
Mean endpoint titre of rNS3 IgG at Week 3 (rNS3; [3]): 5760 ± 6235
Group mean titre (mean ± SD) to rNS3, Week 4 (rNS3; 1 mg ribavirin with 10 μg rNS3): 252 ± 107
Group mean titre (mean ± SD) to rNS3, Week 6 (rNS3; 1 mg ribavirin with 10 μg rNS3): 28071 ± 16195
Group mean titre (mean ± SD) to rNS3, Week 8 (rNS3; 1 mg ribavirin with 10 μg rNS3): 36642 ± 67565
Group mean titre (mean ± SD) to rNS3, Week 4 (rNS3; 1 mg ribavirin with 50 μg rNS3): 150 ± 124
Group mean titre (mean ± SD) to rNS3, Week 6 (rNS3; 1 mg ribavirin with 50 μg rNS3): 52500 ± 55549
Group mean titre (mean ± SD) to rNS3, Week 8 (rNS3; 1 mg ribavirin with 50 μg rNS3): 37500 ± 62105
Group mean titre (mean ± SD) to rNS3, Week 4 (rNS3; 3 mg ribavirin with 10 μg rNS3): 180 ± 128
Group mean titre (mean ± SD) to rNS3, Week 6 (rNS3; 3 mg ribavirin with 10 μg rNS3): 30000 ± 13887
Group mean titre (mean ± SD) to rNS3, Week 8 (rNS3; 3 mg ribavirin with 10 μg rNS3): 22500 ± 34637
Group mean titre (mean ± SD) to rNS3, Week 4 (rNS3; 3 mg ribavirin with 50 μg rNS3): 387 ± 513
Group mean titre (mean ± SD) to rNS3, Week 6 (rNS3; 3 mg ribavirin with 50 μg rNS3): 30000 ± 13887
Mean endpoint titre of rNS3 IgG at Week 1 (rNS3; [4]): 360
Mean endpoint titre of rNS3 IgG at Week 2 (rNS3; [4]): 5760 ± 6235
Mean endpoint titre of rNS3 IgG at Week 3 (rNS3; [4]): 30960 ± 40888
Group mean titre (mean ± SD) to rNS3, Week 4 (rNS3; [5]): 220 ± 139
Group mean titre (mean ± SD) to rNS3, Week 4 (rNS3; [6]): 140 ± 124
Group mean titre (mean ± SD) to rNS3, Week 6 (rNS3; [6]): 10929 ± 11928
Group mean titre (mean ± SD) to rNS3, Week 8 (rNS3; [6]): 15214 ± 15380
adjuvant effect on antibody levels, kinetics (rNS3; higher doses (1-10 mg) of ribavirin with 20 μg rNS3): enhance antibody levels at week three
Endpoint titre of rNS3 IgG at Week 1 (rNS3; [2]): 2160 and 60 and <60
Endpoint titre of rNS3 IgG at Week 2 (rNS3; [2]): 12960 and 60 and 2160
Endpoint titre of rNS3 IgG at Week 3 (rNS3; [2]): 2160 (2×) and 60
Endpoint titre of rNS3 IgG at Week 1 (rNS3; [3]): <60 (2×) and 360
Endpoint titre of rNS3 IgG at Week 2 (rNS3; [3]): 60 and 2160 (2×)
Endpoint titre of rNS3 IgG at Week 3 (rNS3; [3]): 12960 and 2160 (2×)
Antibody titre to rNS3 at Week 4 (rNS3; 1 mg ribavirin with 10 μg rNS3): 300 (4×) and <60 (3×) and 60
Antibody titre to rNS3 at Week 6 (rNS3; 1 mg ribavirin with 10 μg rNS3): 37500 (5×) and 1500 and 7500
Antibody titre to rNS3 at Week 8 (rNS3; 1 mg ribavirin with 10 μg rNS3): 37500 and 1500 and 187500 and 7500 (4×)
Antibody titre to rNS3 at Week 4 (rNS3; 1 mg ribavirin with 50 μg rNS3): 60 (5×) and 300 (3×)
Antibody titre to rNS3 at Week 6 (rNS3; 1 mg ribavirin with 50 μg rNS3): 7500 and 37500 (6×) and 187500
Antibody titre to rNS3 at Week 8 (rNS3; 1 mg ribavirin with 50 μg rNS3): 7500 (5×) and 187500 and 37500 (2×)
Antibody titre to rNS3 at Week 4 (rNS3; 3 mg ribavirin with 10 μg rNS3): 60 (4×) and 300 (4×)
Antibody titre to rNS3 at Week 6 (rNS3; 3 mg ribavirin with 10 μg rNS3): 37500 (6×) and 7500 (2×)
Antibody titre to rNS3 at Week 8 (rNS3; 3 mg ribavirin with 10 μg rNS3): 7500 (4×) and 37500 (4×)
Antibody titre to rNS3 at Week 4 (rNS3; 3 mg ribavirin with 50 μg rNS3): 60 (3×) and 300 (3×) and 1500
Antibody titre to rNS3 at Week 6 (rNS3; 3 mg ribavirin with 50 μg rNS3): 37500 (6×) and 7500 (2×)
Antibody titre to rNS3 at Week 8 (rNS3; 3 mg ribavirin with 50 μg rNS3): 7500 (5×) and 37500 (3×)
Endpoint titre of rNS3 IgG at Week 1 (rNS3; [4]): 360 (2×) and <60
Endpoint titre of rNS3 IgG at Week 2 (rNS3; [4]): 12960 and 2160 (2×)
Endpoint titre of rNS3 IgG at Week 3 (rNS3; [4]): 77760 and 12960 and 2160
Antibody titre to rNS3 at Week 4 (rNS3; [5]): 300 (2×) and <60 (5×) and 60
Antibody titre to rNS3 at Week 6 (rNS3; [5]): 37500 (3×) and 300 (2×) and 7500 (2×)
Antibody titre to rNS3 at Week 8 (rNS3; [5]): 37500 (3×) and 300 (2×) and 7500 (2×)
Antibody titre to rNS3 at Week 4 (rNS3; [6]): 300 (2×) and 60 (5×)
Antibody titre to rNS3 at Week 6 (rNS3; [6]): 7500 (5×) and 37500 (2×) and 1500
Antibody titre to rNS3 at Week 8 (rNS3; [6]): 7500 (5×) and 37500 (2×) and 1500
adjuvant effect on antibody levels, kinetics (rNS3; low doses (<1 mg) of ribavirin with 20 μg rNS3): enhance antibody levels at week one but not at week three
effect on the NS3-specific IgG subclass response (NS3): does not change the IgG subclass response
T cell proliferative response compared with 100 μg rNS3 in PBS (CD4+ T cell): much greater T cell proliferative response
effect on the antibody response to HBsAg vaccine (HBsAg): enhanced the response

GAVQNEVTL (Artificial Peptide, NS3/4A H-2D Binding Peptide) [NS3-derived CTL peptide, ID; NO.: 37]
protection against growth of NS3/4A-EL-4 tumors [1]: not protected
